Drawing on PubChem BioAssay (NCI), this text covers TGI and GI50 for four compounds.

Test systems include A549 NSCLC; ACHN renal; KM12 colon; M14 melanoma; MALME-3M melanoma; NCI-H460 lung; NCI/ADR-RES ovarian; OVCAR-3 ovarian; RXF 393 renal; TK-10 renal.
Common to all, as to assay: NCI tumour cell line growth inhibition, 48 h

“And” between values parts separate entries of the source, which are not always exact repeats. Identical values can stand only once.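 Following 48 hours of exposure in 96-well plates, responses at five concentrations were used to interpolate endpoints linearly. Abbreviation: GI50, concentration required for 50% inhibition of growth. TGI denotes the concentration required for complete inhibition of growth.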 Some results are limits rather than exact numbers.

Regarding `O=C(O)[C@H](Cc1c[nH]c2ccccc12)N1C(=O)c2ccccc2C1=O`, the TGI with A549 NSCLC, with ACHN renal, with KM12 colon, with M14 melanoma, with MALME-3M melanoma and in the assay with NCI-H460 lung was above 100 µM throughout. The TGI in the assay on NCI/ADR-RES ovarian, in the assay on OVCAR-3 ovarian, in the assay on RXF 393 renal and with TK-10 renal was above 100 µM throughout.

For the compound `CCCCN1CCCC[C@@H]1C(=O)N[C@H](C(=O)N(C)[C@H](C[C@@H](OC(C)=O)c1nc(C(=O)NC2CCC(C(=O)OC)CC2)cs1)C(C)C)C(C)C` (stereo partly drawn), the GI50 in the assay with A549 NSCLC is 1.68 µM; with ACHN renal, 2.39 µM; in the assay on KM12 colon it was 1.07 µM; in the assay with M14 melanoma it was 0.983 µM; in the assay with MALME-3M melanoma, 1.97 µM; in the assay on NCI-H460 lung it was 1.08 µM. The GI50 is 3.53 µM with NCI/ADR-RES ovarian, 1.07 µM in the assay on OVCAR-3 ovarian, 0.995 µM in the assay on RXF 393 renal and above 25 µM with TK-10 renal. The TGI with A549 NSCLC is above 25 µM; with ACHN renal it was above 25 µM; in the assay with KM12 colon, above 25 µM; in the assay on M14 melanoma, 18.1 µM; in the assay with MALME-3M melanoma, above 25 µM; in the assay with NCI-H460 lung, above 25 µM. Moreover, the TGI with NCI/ADR-RES ovarian was above 25 µM; with OVCAR-3 ovarian it was above 25 µM; with RXF 393 renal, 11.6 µM; with TK-10 renal it was above 25 µM.

With `COc1ccc(C#Cc2ccc(=O)oc2-c2cc(OC)c(OC)c(OC)c2)cc1O`, the GI50 in the assay on A549 NSCLC is 7.08 µM; with ACHN renal, 17.2 µM; in the assay with KM12 colon it was 3.54 µM; in the assay on M14 melanoma it was 4.33 µM; with MALME-3M melanoma, 10.2 µM; in the assay with NCI-H460 lung, 0.973 µM. For the same compound, the GI50 with NCI/ADR-RES ovarian was 2.6 µM; in the assay on OVCAR-3 ovarian, 1.81 µM; with RXF 393 renal, 1.12 µM; with TK-10 renal, 21.8 µM. For the same compound, the TGI was above 100 µM with A549 NSCLC; above 100 µM in the assay on ACHN renal; above 100 µM in the assay with KM12 colon; above 51.6 µM in the assay with M14 melanoma; above 83.7 µM in the assay on MALME-3M melanoma; above 100 µM in the assay on NCI-H460 lung. The TGI with NCI/ADR-RES ovarian was above 40.6 µM; with OVCAR-3 ovarian it was 28.5 µM; in the assay with RXF 393 renal it was 8.43 µM; in the assay with TK-10 renal, above 100 µM.

Regarding `CCN(CC)CCCC(C)Nc1ccnc2cc(Cl)ccc12` (stereo not drawn), the GI50 was 64.9 µM with A549 NSCLC; above 100 µM in the assay with ACHN renal; 79.5 µM with KM12 colon; 18.5 µM with M14 melanoma; 66.6 µM in the assay with NCI-H460 lung; 22.3 µM in the assay with OVCAR-3 ovarian. Also, the GI50 in the assay with RXF 393 renal is 7.95 µM; in the assay with TK-10 renal it was 42.1 µM. The TGI is above 100 µM in the assay on A549 NSCLC; above 100 µM with ACHN renal; above 100 µM in the assay on KM12 colon; 32.5 µM and 28.4 µM in the assay with M14 melanoma; 48.7 µM and 35.7 µM in the assay on MALME-3M melanoma; above 100 µM with NCI-H460 lung. For the same compound, the TGI in the assay with NCI/ADR-RES ovarian was above 100 µM; with OVCAR-3 ovarian, 75.6 µM and > 100 µM; in the assay with RXF 393 renal it was > 100 µM and 26.2 µM; with TK-10 renal, above 100 µM.
